# How the values were obtained:
# 14-3-3σ = assay: Covalent labeling of 14-3-3σ by peptides, intact protein LC/MS; type: binding, human; conditions: 5 µM peptide, 2 µM 14-3-3σ; for 14-3-3σ full peptide adduct (degree of labeling): 25 °C; for degree of labeling of 14-3-3σ: 37 C
# Procedure: The LC/MS runs for 14-3-3σ were performed on a Waters ACQUITY UPLC class H instrument, in positive ion mode using electrospray ionization. […] The column was held at 40 °C and the autosampler at 10 °C. […] The run flow was 0.4 mL/min. […] The MS data were collected on a Waters SQD2 detector with an m/z range of 2–3071.98 at a range of 900–1900 m/z. The desolvation temperature was 500 °C with a flow rate of 800 L/h. The voltages used were 1.00 kV for the capillary and 24 V for the cone. MassLynx version 4.2 was used to operate the LCMS and analyze the data. Raw data were processed using openLYNX and deconvoluted using MaxEnt with a range of 28,000: 34,000 Da and a resolution of 1 Da/channel. […] For analysis, 24 μl sample was mixed with 6 μl of 2.4% formic acid in water and then 10 μl were injected to intact protein LCMS.
# [1] = tested on: 14-3-3 proteins in A549 lysates; assay: Labeling of 14-3-3 proteins by BODIPY-modified peptides in A549 lysates (SDS-PAGE fluorescence, western blot); type: binding; conditions: BODIPY-labeled derivatives of the peptides; 1 µM (peptides 3, 8) or 0.25 µM (peptide 12), lysate […], 25 °C, 1 h or 22 h
# Procedure: A549 cells were obtained from biological services of the Weizmann Institute. For experiments in lysates, A549 cells were grown in DMEM + FBS. The cells were washed with PBS, scraped from the plate and centrifuged 200 × g for 5 min. […] Cells were incubated in the lysis buffer and centrifuged at 21,000 × g for 10 min at 4 °C. The protein concentration was estimated using BCA, and the lysate was diluted to 1.9 mg/ml in the lysis buffer. […] Then, 13.3 μl of 4X LDS samples buffer with 20 mM DTT was added and the samples were heated for 10 min at 70 °C. The samples were loaded on Bis-Tris gradient gels (4-20%, Genscript) and run using Tris-MOPS buffer at 60 mA/200 V. […] Images were processed and generated using ImageLab. […] Afterwards the gel was directly imaged in ChemiDoc. page 8: Supplementary Figure 7. Peptide binding selectivity in cell lysates and media. a) Raw images for the western blot experiment depicted in figure 5. Experiments was repeated 3 times. Top row: images for experiment done on A549 lysates. Bottom row: Images from extracellular medium. b) Direct gel imaging for experiment in which 1 μ[…] lysates at the indicated concentrations for 22 hours at 25°C. The same amount of lysate was loaded in each lane (28.5 μg). The intense fluorescence at the bottom comes from unbound peptide.
# [2] = tested on: 14-3-3 proteins in extracellular medium of A549 cells; assay: Detection of 14-3-3 proteins by BODIPY-modified peptides in extracellular medium of A549 cells; type: binding; conditions: BODIPY-labeled derivatives; concentrated serum-free medium of A549 cells grown 24 h or 48 h
# Procedure: For experiments in medium, after growing the cells they were transferred to DMEM without FBS, followed by incubation for either 24 h or 48 h. After the incubation, 8.5 ml of the medium was filtered through a 0.2 µm filter, concentrated using a centrifugal concentrator (vivaspin, cutoff 8000–10,000 Da) to ~200 µl, and diluted to 8 ml using HEPES 50 mM pH = 7.5, 150 mM NaCl. This was followed by 2 additional rounds of dilution and concentration to ~200 µl. The samples were then diluted to 300 µl with IGEPAL added to 1% as well as protease inhibitors and PhosStop. 38 µl samples from the medium were then incubated with the peptides and analyzed as performed for the lysate, with 15 s exposure for fluorescence and 50 second exposure for chemiluminescence.
# [3] = target: human 14-3-3σ with an N-terminal His6-tag (human) (UniProt P31947)
# [4] = target: human 14-3-3σ with an N-terminal His6-tag (human) (UniProt P31947); remark: listed apart in the source
# [5] = target: human 14-3-3σ with an N-terminal His6-tag (human) (UniProt P31947); remark: listed apart in the source
# Sequence of UniProt P31947 (P31947 whole entry): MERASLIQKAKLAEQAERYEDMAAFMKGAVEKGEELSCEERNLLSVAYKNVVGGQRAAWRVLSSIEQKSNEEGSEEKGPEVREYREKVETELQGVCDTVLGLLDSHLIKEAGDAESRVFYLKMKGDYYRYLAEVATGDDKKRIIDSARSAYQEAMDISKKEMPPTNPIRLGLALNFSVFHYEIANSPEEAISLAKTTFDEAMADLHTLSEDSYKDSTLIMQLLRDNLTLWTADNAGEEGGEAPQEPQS
substance,measurement,setting,value
"Ac-RAH-(pT)-(mC)-PASLQ-NH2 [Peptide 8, Methacrylate phosphopeptide derived from YAP-1 (PDB 3MHR)]",14-3-3σ full peptide adduct (degree of labeling),"14-3-3σ; intact protein LC/MS, time 0 h",0
same,14-3-3σ full peptide adduct (degree of labeling),14-3-3σ; time 1 h (60 min),34.14
same,14-3-3σ full peptide adduct (degree of labeling),14-3-3σ; time 2.5 h (150 min),55.96
same,14-3-3σ full peptide adduct (degree of labeling),14-3-3σ; time 5 h (300 min),74.24
same,14-3-3σ full peptide adduct (degree of labeling),14-3-3σ; time 24 h (1440 min),86.25
same,degree of labeling of 14-3-3σ,"14-3-3σ; LC/MS, time 0 h",0
same,degree of labeling of 14-3-3σ,14-3-3σ; time 35 min,53.08
same,degree of labeling of 14-3-3σ,14-3-3σ; time 70 min,70.97
same,degree of labeling of 14-3-3σ,14-3-3σ; time 1.75 h,80.85
same,degree of labeling of 14-3-3σ,14-3-3σ; time 4 h,93.18
same,degree of labeling of 14-3-3σ,14-3-3σ; time 8 h,91.76
same,increase of the rate of labeling at 37 °C,14-3-3σ; 37 °C versus 25 °C,roughly 4 fold
same,labeling of proteins in A549 lysates,[1],formed two main bands
"Ac-RAH-(pT)-SPASL-X-NH2 [Peptide 12, reference compound]",detection of 14-3-3 proteins in extracellular medium,[2],14-3-3σ was not detected
same,labeling of proteins in A549 lysates,[1],selectively labeled 14-3-3σ and generated a single fluorescent band
Peptide 3 (Ac-RSA-(pT)-(mC)-PSL-NH2),percent covalent labeling after 48 h,[3],75%
same,"percent covalent labeling (overnight, 200 µM peptide)",[4],51%
same,percent covalent labeling within 5 h,[5],60%
Peptide 8 (Ac-RAH-(pT)-(mC)-PASLQ-NH2),percent covalent labeling after 48 h,[3],90%
same,"percent covalent labeling (overnight, 200 µM peptide)",[4],35%
same,percent covalent labeling within 5 h,[5],80%
Peptide 11 (Ac-RAH-(pT)-SPAS-(mC)-Q-NH2),percent covalent labeling after 48 h,[3],100%
same,"percent covalent labeling (overnight, 200 µM peptide)",[4],57%
same,percent free 14-3-3σ remaining within 2.5 h,[5],< 5%

# Reference: article PMC10692228, “A simple method for developing lysine targeted covalent protein reagents” (Nature Communications, 2023)
